Laboratory results published in patent US8937167B2 (Washington University, priority 2009, dated 2015).
Like-named read-outs stand apart in the source and are kept apart here.

Tests used:
[1] = target: T1, FimH lectin domain (residues 1-158 of UPEC J96 FimH) (Escherichia coli, UniProt P08191); assay type: binding; details: Table 20; compound at 100 μM
T1 construct: made in house

UTI89 biofilm = assay: UTI89 type 1 dependent biofilm formation (inhibition/prevention) assay on PVC, crystal violet; assay type: cell-based, uropathogenic E. coli UTI89
How it was run: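 Prevention: UTI89 grown in LB in PVC wells at 23° C with mannoside at varying concentrations for 48 h, then crystal violet stained and quantified. Disruption: 24 h UTI89 biofilm, mannoside added, grown 16 h more, then crystal violet.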

T1 sequence (P08191 22-179): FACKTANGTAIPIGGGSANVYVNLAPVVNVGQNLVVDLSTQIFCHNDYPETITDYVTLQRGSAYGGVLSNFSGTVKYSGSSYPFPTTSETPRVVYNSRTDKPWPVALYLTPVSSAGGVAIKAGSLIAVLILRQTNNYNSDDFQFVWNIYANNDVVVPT

SMILES	DSF Melting Temp. [1]	IC50 (UTI89 biofilm; Escherichia coli, read-out: Biofilm Prevention IC50)	IC50 (UTI89 biofilm; read-out: biofilm inhibition IC50)
COC(=O)c1cccc(-c2ccc(O[C@H]3O[C@H](CO)[C@@H](O)[C@H](O)[C@@H]3O)cc2)c1 [Compound 1, phenyl mannoside, reference compound]	73.39 °C	940 nM	
CNC(=O)c1cc(C(=O)NC)cc(-c2ccc(O[C@H]3O[C@H](CO)[C@@H](O)[C@H](O)[C@@H]3O)cc2)c1 [ZFH-2056]			740 nM
